# From patent US20240384268A1, “Oligonucleotides” (Hudson Institute of Medical Research, priority 2021, published 2024)
# Molecular target: cGAS (Homo sapiens, UniProt Q8N884)
# Experiment: ISD70-driven IP-10 (and IFN-β) production in THP-1 cells, ELISA
# Format: cell-based
# Design: endogenous in cells; host or cells: THP-1 (undifferentiated)
# Conditions: MOE-modified ASO at 100 nM; averaged IP-10 levels relative to ISD70 condition
# Chain of cGAS (Q8N884 whole entry): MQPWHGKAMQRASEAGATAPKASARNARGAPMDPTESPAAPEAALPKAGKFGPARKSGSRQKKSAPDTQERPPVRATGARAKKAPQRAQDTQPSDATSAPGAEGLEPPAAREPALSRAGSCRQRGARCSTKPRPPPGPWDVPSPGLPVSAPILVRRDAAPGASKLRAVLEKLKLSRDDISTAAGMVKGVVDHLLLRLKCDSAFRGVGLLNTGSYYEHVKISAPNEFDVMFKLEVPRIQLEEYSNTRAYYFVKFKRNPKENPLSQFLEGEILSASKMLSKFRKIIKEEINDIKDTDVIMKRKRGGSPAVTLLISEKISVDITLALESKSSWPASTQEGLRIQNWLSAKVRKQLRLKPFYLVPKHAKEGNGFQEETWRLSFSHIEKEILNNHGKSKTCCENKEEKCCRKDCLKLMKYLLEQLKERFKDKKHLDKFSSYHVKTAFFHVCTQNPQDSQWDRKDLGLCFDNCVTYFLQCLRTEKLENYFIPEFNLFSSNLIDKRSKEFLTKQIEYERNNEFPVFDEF
row,Sequence,cGAS 100 nM
1,"TTGCACACTTCGTACCCAAA (antisense; 2'-MOE modified, pattern not given here) [CAMSAP1-4915 MOE]",0.392
2,"TTGCCATGCTGGCTCGGACT (antisense; 2'-MOE modified, pattern not given here) [CAMSAP1-2584 MOE]",0.518
3,"TTGGCTCGGCTTGCCTACTT (antisense; 2'-MOE modified, pattern not given here) [CAMSAP1-5594 MOE]",0.295
